Reference: the supplement of paper PMC11208160

test: recombinant UMI read abundance after kanamycin selection (control-corrected) (log10(CPM+1)); higher = more efficient recombination; extreme values may be limits of the assay; sequences stand for … in AGTGCAGAGAAAATCGGCCAGTTTTCTCTGCCTGCAGTCCGCATGCCGTGGGACCCCTTGGGTTCTAACCTGTTGCCTAGATTTATGCAGCGGACTGCCTTTCTCCCAAAGTGATAAACCGG…AGGTTGGTTTCACT; site = the 11-nt donor
Method in brief: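 Values are reported as log10(CPM+1), obtained by converting sequencing counts to CPM, averaging replicates and scaling by control-derived factors. The counts came from recombinant UMIs amplified by PCR across the donor–target junction. These UMIs came from a pooled Escherichia coli screen of donor and donor-binding-loop pairs for the IS621 bridge recombinase, plated with IPTG (0.07 mM) plus kanamycin or left unselected, in two replicates each.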
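Also: IS621 bridge recombinase in Escherichia coli cells against a fixed T5 target plasmid.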

Row | Sequence | recombinant UMI read abundance (log10)
1 | GGCCGCCCATGGACCGGTTTTCCCGGTAATCCGTATTTGTT (site GGCCACCCTAA) | 0.0225
2 | GGCCGCCCATGGACCGGTTTTCCCGGTAATCCGTATTTGTT (site GGCCCCCCTAA) | 0.00441
3 | GGCCGCCCATGGACCGGTTTTCCCGGTAATCCGTATTTGTT (site GGCCGCCCTAA) | 0.00876
4 | GGCCGCCCATGGACCGGTTTTCCCGGTAATCCGTATTTGTT (site GGCCTCCCTAA) | 0.0158
5 | GGCCGTACATGGACCGGTTTTCCCGGTAATCCGTATTTGCT (site AGCCGTACTAG) | 0.00424
6 | GGCCGTACATGGACCGGTTTTCCCGGTAATCCGTATTTGCT (site CGCCGTACTAG) | 0.413
7 | GGCCGTACATGGACCGGTTTTCCCGGTAATCCGTATTTGCT (site GGCCGTACTAG) | 1.83
8 | GGCCGTACATGGACCGGTTTTCCCGGTAATCCGTATTTGCT (site TGCCGTACTAG) | 0.302
9 | GGCCTTTCATGGACCGGTTTTCCCGGTAATCCGTATTTGAC (site AGCCTTTCTGT) | 0
10 | GGCCTTTCATGGACCGGTTTTCCCGGTAATCCGTATTTGAC (site CGCCTTTCTGT) | 0
11 | GGCCTTTCATGGACCGGTTTTCCCGGTAATCCGTATTTGAC (site GGCCTTTCTGT) | 0
12 | GGCCTTTCATGGACCGGTTTTCCCGGTAATCCGTATTTGAC (site TGCCTTTCTGT) | 0
13 | GGCCTTTCATGGACCGGTTTTCCCGGTAATCCGTATTTGTC (site GGCCTTTCTGA) | 1.46
14 | GGCGATCCATGGACCGGTTTTCCCGGTAATCCGTATTTGAA (site GGCAATCCTTT) | 0.0192
15 | GGCGATCCATGGACCGGTTTTCCCGGTAATCCGTATTTGAA (site GGCCATCCTTT) | 0.0198
16 | GGCGATCCATGGACCGGTTTTCCCGGTAATCCGTATTTGAA (site GGCGATCCTTT) | 0.785
17 | GGCGATCCATGGACCGGTTTTCCCGGTAATCCGTATTTGAA (site GGCTATCCTTT) | 0.141
18 | GGCGCCTCATGGACCGGTTTTCCCGGTAATCCGTATTTGGG (site GGCGCCTCTCC) | 0.0423
19 | GGCGGGGCATGGACCGGTTTTCCCGGTAATCCGTATTTGTA (site GGCGGGGCTTA) | 1.53
20 | GGCGTAGCATGGACCGGTTTTCCCGGTAATCCGTATTTGTG (site GGCGTAGCTCA) | 0.747
21 | GGCTAGGCATGGACCGGTTTTCCCGGTAATCCGTATTTGGT (site AGCTAGGCTAC) | 0.208
22 | GGCTAGGCATGGACCGGTTTTCCCGGTAATCCGTATTTGGT (site CGCTAGGCTAC) | 0.399
23 | GGCTAGGCATGGACCGGTTTTCCCGGTAATCCGTATTTGGT (site GGCTAGGCTAC) | 0.271

Row | Sequence | recombinant UMI read abundance (log10)
24 | GGCTAGGCATGGACCGGTTTTCCCGGTAATCCGTATTTGGT (site TGCTAGGCTAC) | 0.0118
25 | GGCTCAGCATGGACCGGTTTTCCCGGTAATCCGTATTTGGG (site AGCTCAGCTCC) | 0.00802
26 | GGCTCAGCATGGACCGGTTTTCCCGGTAATCCGTATTTGGG (site CGCTCAGCTCC) | 0.0293
27 | GGCTCAGCATGGACCGGTTTTCCCGGTAATCCGTATTTGGG (site GGCTCAGCTCC) | 0.02
28 | GGCTCAGCATGGACCGGTTTTCCCGGTAATCCGTATTTGGG (site TGCTCAGCTCC) | 0.00932
29 | GGCTGACCATGGACCGGTTTTCCCGGTAATCCGTATTTGAA (site GGCTGACCTTT) | 0.00353
30 | GGCTTAACATGGACCGGTTTTCCCGGTAATCCGTATTTGTC (site GGCTTAACTGA) | 0.732
31 | GGGAAGACATGGACCGGTTTTCCCGGTAATCCGTATTTGGC (site GGGAAGACTGC) | 1.57
32 | GGGACCTCATGGACCGGTTTTCCCGGTAATCCGTATTTGGT (site GGGACCTCTAC) | 2
33 | GGGACCTCATGGACCGGTTTTCCCGGTAATCCGTATTTGTA (site GGGACCTCTTA) | 2.24
34 | GGGACGACATGGACCGGTTTTCCCGGTAATCCGTATTTGCA (site AGGAAGACTTG) | 0
35 | GGGACGACATGGACCGGTTTTCCCGGTAATCCGTATTTGCA (site GGGACGACTTG) | 2.07
36 | GGGAGTCCATGGACCGGTTTTCCCGGTAATCCGTATTTGTT (site CGGAATCCTAA) | 0.00442
37 | GGGAGTCCATGGACCGGTTTTCCCGGTAATCCGTATTTGTT (site GGGAGTCCTAA) | 0.709
38 | GGGAGTTCATGGACCGGTTTTCCCGGTAATCCGTATTTGCA (site GGGAGTTCTTG) | 1.13
39 | GGGATCTCATGGACCGGTTTTCCCGGTAATCCGTATTTGGG (site GGGATCTCTCC) | 1.71
40 | GGGATTTCATGGACCGGTTTTCCCGGTAATCCGTATTTGGG (site GGGATTTCTCC) | 0.679
41 | GGGCACCCATGGACCGGTTTTCCCGGTAATCCGTATTTGTT (site GGACACCCTAA) | 0.0162
42 | GGGCACCCATGGACCGGTTTTCCCGGTAATCCGTATTTGTT (site GGCCACCCTAA) | 0.161
43 | GGGCACCCATGGACCGGTTTTCCCGGTAATCCGTATTTGTT (site GGGCACCCTAA) | 0.325
44 | GGGCACCCATGGACCGGTTTTCCCGGTAATCCGTATTTGTT (site GGTCACCCTAA) | 0.268
45 | GGGCCGGCATGGACCGGTTTTCCCGGTAATCCGTATTTGGC (site AGGCCGGCTGC) | 0
46 | GGGCCGGCATGGACCGGTTTTCCCGGTAATCCGTATTTGGC (site CGGCCGGCTGC) | 0

Row | Sequence | recombinant UMI read abundance (log10)
47 | GGGCCGGCATGGACCGGTTTTCCCGGTAATCCGTATTTGGC (site GGGCCGGCTGC) | 0
48 | GGGCCGGCATGGACCGGTTTTCCCGGTAATCCGTATTTGGC (site TGGCCGGCTGC) | 0
49 | GGGCCTACATGGACCGGTTTTCCCGGTAATCCGTATTTGGG (site GGGCCTACTCC) | 0
50 | GGGCTCACATGGACCGGTTTTCCCGGTAATCCGTATTTGAT (site GAGCTCACTAT) | 0.00773
51 | GGGCTCACATGGACCGGTTTTCCCGGTAATCCGTATTTGAT (site GCGCTCACTAT) | 0.802
52 | GGGCTCACATGGACCGGTTTTCCCGGTAATCCGTATTTGAT (site GGGCTCACTAT) | 1.73
53 | GGGCTCACATGGACCGGTTTTCCCGGTAATCCGTATTTGAT (site GTGCTCACTAT) | 1.11
54 | GGGGAACCATGGACCGGTTTTCCCGGTAATCCGTATTTGAT (site AGGGAACCTAT) | 0
55 | GGGGAACCATGGACCGGTTTTCCCGGTAATCCGTATTTGAT (site CGGGAACCTAT) | 0
56 | GGGGAACCATGGACCGGTTTTCCCGGTAATCCGTATTTGAT (site GGGGAACCTAT) | 0
57 | GGGGAACCATGGACCGGTTTTCCCGGTAATCCGTATTTGAT (site TGGGAACCTAT) | 0
58 | GGGGACTCATGGACCGGTTTTCCCGGTAATCCGTATTTGCA (site GGGGACTCTTG) | 1.89
59 | GGGGAGACATGGACCGGTTTTCCCGGTAATCCGTATTTGCC (site GGGGAGACTGG) | 2.07
60 | GGGGATGCATGGACCGGTTTTCCCGGTAATCCGTATTTGGC (site GGGGATGCTGC) | 0
61 | GGGGCACCATGGACCGGTTTTCCCGGTAATCCGTATTTGTA (site GGGGCACCTTA) | 0
62 | GGGGCACCATGGACCGGTTTTCCCGGTAATCCGTATTTGTA (site GGGGCACCTTC) | 0.0203
63 | GGGGCACCATGGACCGGTTTTCCCGGTAATCCGTATTTGTA (site GGGGCACCTTG) | 0.00274
64 | GGGGCACCATGGACCGGTTTTCCCGGTAATCCGTATTTGTA (site GGGGCACCTTT) | 0.0754
65 | GGGGCAGCATGGACCGGTTTTCCCGGTAATCCGTATTTGCA (site GGGGCAACTTG) | 1.47
66 | GGGGCAGCATGGACCGGTTTTCCCGGTAATCCGTATTTGCA (site GGGGCACCTTG) | 0
67 | GGGGCAGCATGGACCGGTTTTCCCGGTAATCCGTATTTGCA (site GGGGCAGCTTG) | 2.13
68 | GGGGCAGCATGGACCGGTTTTCCCGGTAATCCGTATTTGCA (site GGGGCATCTTG) | 0.336
